Results as given in patent US20210238551A1, “Method for Generating Regulatory T Cells” (Osaka University, priority 2018, published 2021).

How the values were obtained:
human T cells = conditions: existing methods, Non-patent literature 3; cited from earlier work
[1] = tested on: human CD4+ CD25- CD45RA+ T cells; assay: Bisulfite sequencing of demethylation in Foxp3 CNS2 region in regulatory T cells induced from human T cells; format: cell-based; conditions: combined with ascorbic acid, FIG. 13
Procedure: (§1) Genomic DNA was obtained from induced cells, treated with MethylEasy Xceed Rapid DNA Bisulphite Modification Kit (Human Genetic Signatures), and then examined for demethylations in genes specific to regulatory T cells. The demethylations in each gene were analyzed by using known methods and primers (Floess et al. (2007) PloS Biology Volume 5, Issue 2, e38, and Ohkura et al. (2012) Immunity 37(5) 785-799).
(§2) For the analysis in mouse Foxp3 CNS2 region, 5′-[…]-3′ (SEQ ID NO: 1) was used as the primer on the forward side, and 5′-[…]-3′ (SEQ ID NO: 2) was used as the primer on the reverse side. For the analysis in human Foxp3 CNS2 region, 5′-[…]-3′ (SEQ ID NO: 3) was used as the primer on the forward side, and 5′-[…]-3′ (SEQ ID NO: 4) was used as the primer on the reverse side.
Human CD4^+ CD25^− CD45RA^+ T cells (human T cells) were stimulated in the basal medium comprising anti-CD3 antibody, anti-CD28 antibody, and IL-2 for 3 days. The cells were then cultured for pretreatment in the basal medium supplemented with only IL-2 for 4 days. […]

mouse naïve T cells = assay: Bisulfite sequencing of regulatory T cell-specific demethylation in regulatory T cells induced from mouse naïve T cells; format: cell-based; conditions: 10 μg/ml or 30 μg/ml ascorbic acid in basal medium, Example 1 culture system, FIG. 3
Procedure: as §1, §2
Mouse naïve T cells were obtained from lymph nodes of eFox reporter mice by FACS. […] We analyzed regulatory T cell-specific demethylation sites and commonly methylation sites in Foxp3, CTLA4, Eos, and Helios. […]

O=C1O[C@H]([C@@H](O)CO)C(O)=C1O [ascorbic acid]
induction of regulatory T cell-specific demethylations in human T cells (human T cells): cannot induce regulatory T cell-specific demethylations in human T cells | demethylation effect in human T cell-derived regulatory T cells [1]: demethylation effect of ascorbic acid was also observed | degree of demethylations at regulatory T cell-specific sites on adding ascorbic acid (mouse naïve T cells): degree of the demethylations was further increased
